Results as given in patent publication US20140088144A1, “INHIBITING MICROBIAL INFECTIONS” (THE UNIVERSITY OF KANSAS, priority 2012, published 2014).

How the values were obtained:
ipaB = assay: Shigella gene expression qRT-PCR, ipaB; type: cell-based, S. flexneri; settings: for Average ΔΔCt / Ct / RQ (2^−ΔΔCt) / ΔΔCt^1 (normalized to gapA) / ΔΔCt^2 (normalized to rrsA): ipaB, example data
Method: Real-time quantitative reverse transcription PCR (qRT-PCR) was performed to test the effects of SE-1 on the expression of the VirF regulated genes virB, icsA, icsB and ipaB. The gapA and rrsA transcripts were used as internal controls. These are constitutively expressed Shigella genes commonly used to normalize mRNA levels. S. flexneri strain SME4331, which carries a null mutation in ipgD (ipgD), was grown at 30° C. overnight in TSB with ampicillin, diluted into the same medium to an OD600 of ˜0.1, and 1 ml aliquots further grown at 30° C. (DMSO only) or at 37° C. (SE-1 at 20 or 40 μM, or DMSO only, all 0.3% DMSO). Cells were grown to an OD600 of 1.0 (˜2.5 h) and RNA was isolated using an RNeasy MiniElute Cleanup Kit (Qiagen, Germantown, Md.), with DNA contamination eliminated using a Turbo DNase Kit (Ambion, Austin, Tex.). Complementary DNA (cDNA) was synthesized by random priming using a cDNA Reverse Transcription Kit (Applied Biosystems, Foster City, Calif.). Primers were tested for PCR specificity using genomic DNA template to ensure a single amplicon of the expected size for each primer pair, and validated using 5-fold dilutions of cDNA (2000 to 0.0256 ng) to ensure a linear plot of cycle threshold (Ct) versus cDNA concentration. Validated primer sets were used to test mRNA profiles in reactions that contained 10 ng of cDNA, 10 μl of SYBR green master mix (Applied Biosystems), specific primers (0.5 μM each) and water to a final volume of 20 μl, using a Step One Plus Real-Time PCR System (Applied Biosystems). The data was analyzed using the 2^−ΔΔCt method, and also by Applied Biosystems real-time analysis software. […] In brief, ΔΔCt values [ΔΔCt=(Ct,Target−Ct,Internal Control)SE-1−(Ct,Target−Ct,Internal Control)no SE-1] were separately obtained for each sample relative to two internal controls, gapA and rrsA. The ΔΔCt values relative to the two internal controls for each sample were averaged and then used to calculate the relative expression levels (2^−ΔΔCt). As a control, we also normalized each internal control to the other internal control. Control reactions used templates generated without reverse transcriptase to ensure low genomic DNA contamination. To ensure that products were not likely to be due to primer dimer artifacts, additional control samples were performed in which reaction mixtures contained primers alone (no template).

[1] = tested on: Shigella invasion of HeLa cells; assay: Shigella invasion of HeLa cells; type: cell-based, Shigella flexneri strain M90T; settings: bacteria grown with compound before addition to cells
Method: We assayed the effect of Compound 1 on the interaction of Shigella with cultured human epithelial cells. Shigella flexneri strain M90T was grown to maximize type III secretion system [Shigella] expression. Shigella was assayed for invasion of HeLa cells. The bacterial cells were grown in the presence of Compound 1 prior to addition to tissue culture wells. Invasion assays involved, briefly, incubation of Shigella cells in tissue culture wells, washing to remove non-adherent bacteria, addition of gentamycin to kill bacterial cells that had not invaded the epithelial cells, trypsin treatment to dislodge epithelial cells, serial dilutions and plating on LB to enumerate bacterial colonies

VirF = VirF (Shigella flexneri, UniProt P0A2T1); assay: Shigella virB-lacZ reporter gene assay; type: cell-based, S. flexneri; parameters: endogenously expressed VirF in a Shigella strain carrying a virB-lacZ reporter construct; endogenous in cells; host or cells: S. flexneri strain BS536 (virB-lacZ)
Method: Colonies of S. flexneri strain BS536 that were red on TSA plates containing Congo red were grown overnight in Luria-Bertani broth at 30° C. to maintain low basal expression from the virB promoter. The overnight grown cultures were diluted 1:100 into 10 ml of the same medium with either 0.3% DMSO or different concentrations of SE-1 dissolved in DMSO (final concentration 0.3% DMSO). Cultures were grown at 37° C. in a shaking incubator to an OD600 of ˜0.4, centrifuged to pellet the cells and then resuspended in Z buffer for a two-fold concentration of the cells. Control cultures were grown at 30° C., a temperature at which virF expression is not induced (37), to illustrate the basal level of expression from the virB promoter region. β-Galactosidase assays were performed, with incubation with the substrate o-nitrophenyl-β-D-galactopyranoside (ONPG) was at room temperature. Activities are presented as a percentage of the uninhibited, DMSO-only control sample. Three independent assays were performed with two replicates in each assay.

Chain of VirF (P0A2T1 whole entry): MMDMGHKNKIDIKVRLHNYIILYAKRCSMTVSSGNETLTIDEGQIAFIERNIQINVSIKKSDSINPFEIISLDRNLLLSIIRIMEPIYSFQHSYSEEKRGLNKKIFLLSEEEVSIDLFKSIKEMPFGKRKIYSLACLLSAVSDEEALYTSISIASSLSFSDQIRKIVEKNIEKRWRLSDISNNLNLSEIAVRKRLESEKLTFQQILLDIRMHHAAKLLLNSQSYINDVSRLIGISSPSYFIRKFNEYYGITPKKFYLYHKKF

CCCCN1C=C(c2ccc3ccccc3n2)C(C[N+](=O)[O-])c2ccccc21 (centres unmarked) [Compound 1, 1-butyl-4-(nitromethyl)-3-quinolin-2-yl-4H-quinoline]
reduction of ipaB expression (ipaB; 40 μM inhibitor, P<0.05): up to 4 fold
Average ΔΔCt (ipaB; SE-1 20 μM): 1.11
Ct (ipaB; SE-1 20 μM): 25.57
RQ (2^−ΔΔCt) (ipaB; SE-1 20 μM): 0.46
ΔΔCt^1 (normalized to gapA) (ipaB; SE-1 20 μM): 0.62
ΔΔCt^2 (normalized to rrsA) (ipaB; SE-1 20 μM): 1.61
Average ΔΔCt (ipaB; SE-1 40 μM): 2.20
Ct (ipaB; SE-1 40 μM): 26.23
RQ (2^−ΔΔCt) (ipaB; SE-1 40 μM): 0.22
ΔΔCt^1 (normalized to gapA) (ipaB; SE-1 40 μM): 1.85
ΔΔCt^2 (normalized to rrsA) (ipaB; SE-1 40 μM): 2.54
ability of Shigella to invade human epithelial cells [1]: reduced
IC50 (VirF): ~30 µM
maximum inhibition of virB-lacZ expression (VirF; 40 μM SE-1): greater than two fold
